From publication PMC7318308, “A Novel Synthetic Dual Agonistic Liposomal TLR4/7 Adjuvant Promotes Broad Immune Responses in an Influenza Vaccine With Minimal Reactogenicity” (Frontiers in Immunology, 2020)
“Also recorded” adds a separate entry of the source. Where two headings read alike, the source gives them in different places.

Key:
[1] = test system: HEK-Blue hTLR4 reporter cells; assay: MTT cell viability, human TLR4 reporter cells; assay type: cell-based; settings: dose response, % viability normalized to vehicle (0.5% DMSO)
Description: (§1) TLR4/NF-κB activation was assessed using HEK-Blue™ hTLR4 and HEK-Blue™ mTLR4 (InvivoGen). The cells were treated with 1Z105 and 2B182C (2-fold serial dilutions starting from 10 μM) for 20 h. NF-κB inducible secreted embryonic alkaline phosphatase (SEAP) protein in the culture supernatant was measured according to manufacturer's protocol. To evaluate cell viability, 0.5 mg/mL 3-[4,5-dimethylthiazol-2-yl]-2,5-dipheyl tetrazolium bromide (MTT, Thermo Fisher Scientific) solution was added to each well and incubated at 37°C. Six hours later, formazan crystals were lysed with lysis buffer (15% SDS and 0.12% 12 N HCl) and the absorbance was measured at 570 nm using 650 nm as a reference with a plate reader (Tecan, Switzerland).
(§2) Human TLR4 reporter cells Murine TLR4 reporter cells
(§3) [Compound] 1 μM 10 [Compound] 1 μM 10
(§4) Supplementary Figure 1. Dose response curves for cell viability (toxicity) of lead compounds in human and murine TLR4-NF-κB reporter cells. Cellular toxicity evaluated by MTT assay is presented as % viability normalized to vehicle (0.5% DMSO) as 100%. While 1Z105 had minimal toxicity in both hTLR4 and mTLR4 reporter cells (HEK-BlueTM hTLR4 and HEK-BlueTM mTLR4, […]
(§5) (also on this page, place not known: %Relative (Normalized 100%) 101101 viability vehicle as to)

mouse TLR4 = biological target: T1, mouse TLR4 (Mus musculus, UniProt Q9JHF9+Q9QUK6); assay: TLR4/NF-κB reporter cell assay (SEAP), HEK-Blue mTLR4; assay type: cell-based; settings: for EC50: 20 h, 2-fold serial dilutions from 10 μM, NF-κB SEAP, read-out: EC50 on mTLR4 reporter cells; for murine TLR4 agonistic activity (in words): AUC normalized to 2B110 as 100%, Figure 1C
T1 construct: host or cells: HEK-Blue mTLR4 (HEK293-derived NF-κB/SEAP reporter cells)
T1 sequence (Q9QUK6 26-835): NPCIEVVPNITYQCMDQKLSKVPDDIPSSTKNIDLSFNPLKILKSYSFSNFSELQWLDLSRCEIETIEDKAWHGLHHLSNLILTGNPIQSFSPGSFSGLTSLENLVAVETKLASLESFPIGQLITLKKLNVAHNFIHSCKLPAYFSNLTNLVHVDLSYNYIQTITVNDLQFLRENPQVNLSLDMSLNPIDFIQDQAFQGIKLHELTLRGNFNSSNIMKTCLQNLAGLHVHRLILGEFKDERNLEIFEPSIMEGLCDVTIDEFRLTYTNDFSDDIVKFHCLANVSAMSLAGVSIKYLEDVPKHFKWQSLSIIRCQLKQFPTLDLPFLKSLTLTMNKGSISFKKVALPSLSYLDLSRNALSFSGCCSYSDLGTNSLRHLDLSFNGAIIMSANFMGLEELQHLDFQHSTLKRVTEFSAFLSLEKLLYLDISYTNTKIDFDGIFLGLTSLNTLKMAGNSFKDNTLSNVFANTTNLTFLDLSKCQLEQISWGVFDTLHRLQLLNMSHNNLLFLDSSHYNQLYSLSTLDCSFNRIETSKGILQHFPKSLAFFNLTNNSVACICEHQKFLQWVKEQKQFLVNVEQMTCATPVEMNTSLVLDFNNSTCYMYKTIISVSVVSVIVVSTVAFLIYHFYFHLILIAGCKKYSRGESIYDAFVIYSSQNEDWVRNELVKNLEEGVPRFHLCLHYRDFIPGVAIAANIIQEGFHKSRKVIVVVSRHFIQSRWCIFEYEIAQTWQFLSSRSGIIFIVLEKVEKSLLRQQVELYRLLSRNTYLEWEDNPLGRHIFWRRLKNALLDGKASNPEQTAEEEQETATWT
T1 sequence (Q9JHF9 19-160): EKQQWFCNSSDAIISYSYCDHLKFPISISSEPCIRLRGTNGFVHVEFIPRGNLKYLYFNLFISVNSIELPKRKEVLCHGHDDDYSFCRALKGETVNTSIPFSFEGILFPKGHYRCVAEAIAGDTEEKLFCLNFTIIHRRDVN
Description: (§6) Figure 1 Structure-activity relationship studies in TLR4 agonistic pyrimidoindoles. (A) Syntheses of C8-alkynyl and C8-alkyl analogs. (B) Syntheses of C8-aryl analogs. (C) Scatter plot of hTLR4 and mTLR4 agonistic activity in TLR4-NF-κB HEK reporter cells (HEK-Blue™ hTLR4 and HEK-Blue™ mTLR4, respectively). NF-κB inducible NF-κB SEAP levels in culture supernatants were measured according to manufacturer's protocol. The TLR4 agonistic potency was evaluated as area under the curve (AUC) calculated for dose response curve using 2-fold serial dilutions from 10 μM, and normalized to the AUC for 2B110 as 100% on both axes. […] The color of each point is based on cell viability in TLR4-NF-κB reporter cells for compounds evaluated at 5 μM concentration. Viability data was normalized to vehicle control (Vehicle OD570−650 = 0.58 ± 0.01). (D) Structures of the lead compounds with differences at C8 substitution highlighted in blue.
(§7) Titration curves of 1Z105 and derivatives were used to assess their potency in stimulating human and mouse TLR4 response using HEK NF-κB reporter cells (HEK-Blue™ hTLR4 and mTLR4, respectively). The areas under the curve for dose response curves relative to vehicle (0.5% DMSO) were normalized to the greatest activity as 100% of 2B110 for both assays (Figure 1C). The compounds were also tested for in vitro toxicity by MTT assay (Figure 1C, Supplementary Figure 1).
as §1

mBMDCs [2] = assay: IL-12 and IL-6 production in mouse BMDCs (ELISA); assay type: cell-based
Description: (§8) Human PBMC (10^6 cells/mL) were treated with 5 μM 1Z105 and 2B182C overnight and the culture supernatant assessed for human IL-8 by ELISA. Mouse BMDCs (10^6 cells/mL) were incubated with serially diluted compounds (2-fold dilution from 5 μM). 0.5% DMSO was used as vehicle. IL-12 and IL-6 levels in the supernatant were measured by ELISA. ELISA was performed as previously described ([57]). Reagents and dilution factors of antibodies are described in Supplementary Table 1.

[3] = test system: HEK-Blue mTLR4 reporter cells; assay: MTT cell viability, murine TLR4 reporter cells; assay type: cell-based; settings: dose response, % viability normalized to vehicle (0.5% DMSO)
Description: as §1, §2, §3, §4, §5

human TLR4 = biological target: T2, human TLR4 (Homo sapiens, UniProt O00206+Q9Y6Y9); assay: TLR4/NF-κB reporter cell assay (SEAP), HEK-Blue hTLR4; assay type: cell-based; settings: for human TLR4 agonistic activity (in words): AUC normalized to 2B110 as 100%, Figure 1C
T2 construct: host or cells: HEK-Blue hTLR4 (HEK293-derived NF-κB/SEAP reporter cells)
Description: as §6, §7, §1

mBMDCs [4] = assay: CD40 and CD86 expression on BMDCs (flow cytometry); assay type: cell-based, mouse; settings: 1 μM, 20 h; compared to 1Z105
Description: Detailed information for reagents used in flow cytometry analysis are shown in Supplementary Table 2. For co-stimulatory molecules on mBMDCs, mBMDCs (10^6 cells/mL) were incubated with 1 μM 1Z105 and 2B182C for 20 h. 0.5% DMSO was uses as vehicle. After removing the supernatant, cells were washed with the stain buffer (BD Biosciences, San Diego, CA) and incubated with anti-mouse CD16/32 antibody for blocking FcR. Cells were then stained with an antibody cocktail with anti-CD40 and anti-CD86 antibodies for 20–30 min at 4°C. For analysis of lymphocytes harvested from draining lymph nodes, two antibody cocktails were prepared; (1) anti-CD3, anti-CD4, anti-PD-1, and anti-CXCR5 antibodies for Tfh cell analysis, (2) anti-CD3, anti-CD19, anti-CD95, anti-CD138, and anti-GL7 antibodies for B cell analysis. After blocking with anti-CD16/CD32 antibody, 2 × 10^6 cells were stained in each antibody cocktail. For Tfh cell analysis, after staining with primary antibodies, cells were washed with PBS, and incubated with streptavidin-PE. Cells were then washed and stained with propidium iodide to determine live/dead cells. Data were acquired using MACSQuant Analyzer 10 (Miltenyi Biotec, Germany) and analyzed using FlowJo (version 10.6.1, Becton Dickinson, Ashland, OR).

hPBMCs = assay: IL-8 release from human PBMC (ELISA); assay type: cell-based; settings: 5 μM, overnight; compared to 1Z105
Description: as §8

[5] = test system: IIAV A/California/04/2009 (H1N1)pdm09 HA and NA; assay: Prime-boost vaccination model with IIAV, serum anti-HA/anti-NA IgG ELISA; assay type: in vivo, BALB/c mice; settings: i.m. IIAV 10 μg + adjuvant days 0 and 21, sera day 28; 1V270 1 nmol, TLR4 ligand 200 nmol/injection
[6] = test system: TLR4-NF-κB reporter cells; assay: MTT cell viability in TLR4-NF-κB reporter cells; assay type: cell-based; settings: 10 µM, MTT, Supplementary Figure 1
Description: as §6, §1

[7] = Mus musculus, BMDC, read-out: EC50 for IL-6 production in mBMDCs, 2-fold dilution from 5 μM
[8] = Mus musculus, BMDC, read-out: EC50 for IL-12 production in mBMDCs, 2-fold dilution from 5 μM

T2 sequence (O00206 24-839): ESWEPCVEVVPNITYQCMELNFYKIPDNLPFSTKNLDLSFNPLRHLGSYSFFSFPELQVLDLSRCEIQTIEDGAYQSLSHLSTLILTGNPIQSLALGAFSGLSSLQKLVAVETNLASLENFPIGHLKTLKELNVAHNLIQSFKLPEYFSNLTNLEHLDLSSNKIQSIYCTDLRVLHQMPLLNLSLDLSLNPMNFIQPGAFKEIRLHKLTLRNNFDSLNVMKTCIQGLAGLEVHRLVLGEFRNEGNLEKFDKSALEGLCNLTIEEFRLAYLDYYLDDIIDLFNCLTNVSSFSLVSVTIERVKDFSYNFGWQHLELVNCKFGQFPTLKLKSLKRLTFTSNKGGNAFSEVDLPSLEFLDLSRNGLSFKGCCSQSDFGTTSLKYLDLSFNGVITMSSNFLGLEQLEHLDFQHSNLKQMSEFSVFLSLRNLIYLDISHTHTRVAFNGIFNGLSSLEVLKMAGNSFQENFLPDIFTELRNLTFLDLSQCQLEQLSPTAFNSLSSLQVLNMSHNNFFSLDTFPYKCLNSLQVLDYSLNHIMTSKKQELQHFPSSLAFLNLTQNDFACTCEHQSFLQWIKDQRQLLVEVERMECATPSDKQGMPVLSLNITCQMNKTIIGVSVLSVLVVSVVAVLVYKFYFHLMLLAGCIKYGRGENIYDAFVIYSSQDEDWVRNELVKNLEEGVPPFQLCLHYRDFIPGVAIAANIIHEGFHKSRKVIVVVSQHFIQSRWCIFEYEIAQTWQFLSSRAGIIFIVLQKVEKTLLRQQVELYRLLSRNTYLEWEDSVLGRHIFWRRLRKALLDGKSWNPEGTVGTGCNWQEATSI
T2 sequence (Q9Y6Y9 17-160 limits assumed): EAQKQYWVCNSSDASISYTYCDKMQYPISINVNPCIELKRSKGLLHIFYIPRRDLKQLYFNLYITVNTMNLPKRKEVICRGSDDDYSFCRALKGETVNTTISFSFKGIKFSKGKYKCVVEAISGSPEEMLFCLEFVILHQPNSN

SMILES	toxicity, hTLR4 reporter cells (in words) [1]	EC50 (mouse TLR4) [µM]	EC50 (mBMDCs [2]; [7]) [µM]	EC50 (mBMDCs [2]; [8]) [µM]	toxicity, mTLR4 reporter cells (in words) [3]	EC50 (human TLR4; 20 h, 2-fold serial dilutions from 10 μM, NF-κB SEAP, read-out: EC50 on hTLR4 reporter cells) [µM]	human TLR4 agonistic activity (in words) (human TLR4)	human TLR4 agonistic activity (in words) (human TLR4; listed as 8s)	fold more potent than 1Z105, hTLR4 reporter cells (human TLR4; ratio of EC50)	murine TLR4 agonistic activity (in words) (mouse TLR4)	murine TLR4 agonistic activity (in words) (mouse TLR4; listed as 8s)	fold more potent than 1Z105, mTLR4 reporter line (mouse TLR4; ratio of EC50) [fold]	CD40 expression on mBMDCs (in words) (mBMDCs [4])	CD86 expression on mBMDCs (in words) (mBMDCs [4])	EC50 (mBMDCs [2]; read-out: EC50 for IL-6 production in mBMDCs, 2-fold dilution from 5 μM) [µM]	IL-8 secretion by hPBMCs (in words) (hPBMCs)	serum anti-HA IgG1 (in words) [5]	serum anti-NA IgG1 (in words) [5]	serum anti-NA IgG2a (in words) [5]	toxicity at 10 µM (in words) [6]
Cn1c2ccccc2c2nc(SCC(=O)NC3CCCCC3)n(-c3ccccc3)c(=O)c21 [1Z105, N-cyclohexyl-2-((5-methyl-4-oxo-3-phenyl-4,5-dihydro-3H-pyrimido[5,4-b]indol-2-yl)thio)acetamide]	minimal	7.49	0.63	0.77	minimal	–	–	–	–	–	–	–	–	–	–	–	–	–	–	–
Cn1c2ccc(-c3ccco3)cc2c2nc(SCC(=O)NC3CCCCC3)n(-c3ccccc3)c(=O)c21 [2B182C]	–	1.65	0.16	0.2	–	1.66	high TLR4 stimulatory potency	potency equivalent to that of compound 2B110	approximately 800 fold	high TLR4 stimulatory potency	potency equivalent to that of compound 2B110	4	significantly higher expression levels	significantly higher expression levels	0.12	higher level of IL-8 secretion	significantly increased; also recorded: higher serum anti-HA and anti-NA IgG1 levels compared to 1Z105	significantly increased; also recorded: higher serum anti-HA and anti-NA IgG1 levels compared to 1Z105	enhanced	exhibited toxicity
